Source: article PMC6826616, “Topical 2′-Hydroxyflavanone for Cutaneous Melanoma” (Cancers, 2019)
Where two headings read alike, the source gives them in different places.

Columns and labels:
B16-F0 cells = test: MTT cytotoxicity assay, B16-F0; assay type: cell-based; details: Mus musculus, B16F0
From the text: We studied the growth-inhibitory effects of 2HF on the B16-F0 and B16-F10 murine melanoma cell lines as well as on the SK-MEL-24 human melanoma cell line. B16-F10 and SK-MEL-24 have been shown in previous studies to be highly resistant to treatment and much more invasive than B16-F0 [32]. […] The absorption value measured upon reduction of the MTT dye by functional mitochondria is an indirect measure of cell number that cannot distinguish inhibited cell proliferation from apoptotic or necrotic cell death. By counting viable (trypan-blue dye-excluding) cells using a hemacytometer, we verified that 2HF did indeed cause cell death.
Figure 1 Mouse and human melanoma cell survival following 2′-hydroxyflavanone (2HF) treatment.
The IC50 of 2HF on B16-F0, B16-F10, and SK-MEL-24 cells was determined by MTT cytotoxicity assay. Cells were harvested and Trypan Blue dye exclusion test was used to determine the number of viable cells present in a cell suspension using a hemocytometer. The cell suspension was diluted to 5 × 10^4 cells/mL with Dulbecco’s Modified Eagle’s Medium (DMEM) complete medium and 5000 cells/well were plated in 96-well plates. After 24 h incubation at 37 °C, cells were treated with 2HF concentrations ranging from 0–200 µM (8 replicates per plate). After 48 or 72 h incubation, 40 µL of MTT (5 mg/mL) solution was added. After 4 h incubation, the plate was centrifuged at 700× g for 5 min and medium was aspirated completely. Then, 50 µL DMSO was added to each well to dissolve the purple precipitate on the rocking platform for about 15 min. The absorbance was then measured at 490 nm using a 96-well microplate reader (Spectramax Plus, Molecular Devices, Inc, San Jose, CA, USA).

[1] = Single dose pharmacokinetic study of 2HF; assay type: in vivo, Sprague Dawley male rats; details: male SD rats
Method: Figure 7 Plasma concentration vs. time profile of 2HF in rats. Mean plasma concentration vs. time profile of 2HF following intravenous and oral administration of 2HF at 5 mg/kg and 10 mg/kg, respectively, to male SD rats (n = 3).
Pharmacokinetic studies of 2HF were performed by GVK Biosciences Pvt. Ltd., Hyderabad, India in Sprague Dawley male rats (~280 g). Rats were dosed either orally through gastric gavage needle of 10 mg/kg 2HF (0.5% Methyl cellulose + 0.5% Tween80) or intravenous 5 mg/kg 2HF (in 10% DMSO). Then, 200–300 µL blood was collected at each time point and plasma was separated; 50 µL plasma sample was deproteinized with 200 µL of acetonitrile followed by centrifugation at 2000× g for 5 min and supernatant was analyzed for 2HF by LC-MS/MS. Pharmacokinetic parameters were calculated for individual animals by a non-compartmental model with Phoenix software version 8.1 (CERTARA, Princeton, NJ, USA).

## O=C1CC(c2ccccc2O)Oc2ccccc21 (centres unmarked) [2HF, 2′-hydroxyflavanone]
B16-F0 cells; MTT, 72 h, mean ±SD, n = 5, read-out: IC50 at 72 h (growth/survival)
  IC50: 38 ± 4 µM
B16-F0 cells; Table 1, agent alone, read-out: IC50
  IC50: 38.6 ± 1.61 µM
[1]; 10 mg/kg oral vs 5 mg/kg IV
  oral bioavailability: Poor
  plasma concentrations orally compared with IV: two log-order lower
[1]; after either oral or IV administration
  clearance: rapid clearance
